According to the supplement of paper PMC8967900:

Experiments:
Assay in all cases: selective drug sensitivity score (sDSS, relative to normal bone marrow) (sDSS (score)); higher = more potent and effective on the cell line relative to normal bone marrow cells
Settings in all cases: 72 h
[1] = test system: 697
[2] = test system: CCRF-CEM
[3] = test system: CCRF-HSB2
[4] = test system: COG-LL-332h
[5] = test system: COG-LL-355h
[6] = test system: DND-41
[7] = test system: HAL-01
[8] = test system: KARPAS-45
[9] = test system: KOPN-8
[10] = test system: LC4-1
[11] = test system: MHH-CALL-2
[12] = test system: MHH-CALL-4
[13] = test system: MN-60
[14] = test system: MOLT-16
[15] = test system: NALL-1
[16] = test system: P12-ICHIKAWA
[17] = test system: P30-OHKUBO
[18] = test system: RPMI-8402
[19] = test system: SUP-B15
[20] = test system: TMD5
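Note: ALL cell lines in 384-well plates, five doses spanning 10,000-fold, each plate scaled between vehicle and 100 µmol/L benzalkonium chloride controls, sDSS an adapted area-under-curve metric.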

Structure (SMILES) | selective drug sensitivity score [1] | selective drug sensitivity score [2] | selective drug sensitivity score [3] | selective drug sensitivity score [4] | selective drug sensitivity score [5] | selective drug sensitivity score [6] | selective drug sensitivity score [7] | selective drug sensitivity score [8] | selective drug sensitivity score [9] | selective drug sensitivity score [10] | selective drug sensitivity score [11] | selective drug sensitivity score [12] | selective drug sensitivity score [13] | selective drug sensitivity score [14] | selective drug sensitivity score [15] | selective drug sensitivity score [16] | selective drug sensitivity score [17] | selective drug sensitivity score [18] | selective drug sensitivity score [19] | selective drug sensitivity score [20]
CC(C)[C@H]1C(=O)N[C@@H](CCCNC(=N)N)C(=O)NCC(=O)N[C@@H](CC(=O)O)C(=O)N[C@H](Cc2ccccc2)C(=O)N1C [Cilengitide] (top concentration 10000 nM) | 0 | 0 | 0 | 0 | 0 | 0 | 6.5 | 0 | 13.8 | 0 | 7.1 | 5.5 | 0 | 0 | 11.8 | 0 | 4.2 | 0 | 0 | 7.5
CN[C@@H]1C[C@H]2O[C@@](C)([C@@H]1OC)n1c3ccccc3c3c4c(c5c6ccccc6n2c5c31)C(=O)N[C@H]4O [UCN-01] (top concentration 10000 nM) | 12.9 | 6.04 | 9.34 | 1.44 | 4.34 | 7.44 | 2.94 | 6.74 | 10.6 | 1.54 | 7.94 | 8.14 | 0.94 | 8.64 | 0.94 | 5.94 | 7.74 | 5.24 | 2.64 | -0.36
CNc1ncc2cc(-c3cc(NC(=O)NCCC(C)(C)C)c(F)cc3C)c(C)nc2n1 (top concentration 10000 nM) | 10.5 | 5.56 | 20.2 | 9.06 | 9.16 | 8.06 | 4.66 | 5.26 | 21.3 | 7.86 | 9.76 | 8.96 | -0.94 | 5.06 | 4.96 | 11 | 5.86 | 0.66 | 16.1 | 7.86
NC1(C(=O)N[C@@H](CCO)c2ccc(Cl)cc2)CCN(c2ncnc3[nH]ccc23)CC1 [AZD-5363] (top concentration 10000 nM) | 5.32 | 9.32 | 4.02 | 4.02 | 5.92 | -1.88 | 4.02 | 5.82 | 6.72 | 1.22 | 7.82 | 5.52 | 0.12 | 13.3 | 4.72 | 3.52 | 5.22 | 3.52 | 0.42 | 6.62
Cc1nc(Nc2n[nH]c3c2CN(C(=O)N[C@H](CN(C)C)c2ccccc2)C3(C)C)c2sccc2n1 (top concentration 10000 nM) | 16.4 | 6.98 | 11.1 | 7.58 | 3.98 | 0.98 | -10.5 | 9.48 | 18.3 | 3.98 | 0.38 | 0.88 | 5.08 | 22.7 | -7.42 | 3.68 | 12 | 6.38 | 12.8 | -7.92
CC(C)(C)c1nc(-c2cccc(NS(=O)(=O)c3c(F)cccc3F)c2F)c(-c2ccnc(N)n2)s1 [Dabrafenib] (top concentration 2500 nM) | 11.5 | 0.58 | 4.48 | 1.68 | 0.38 | -1.52 | 1.18 | 2.18 | 8.48 | 6.48 | 9.18 | 3.08 | -0.92 | 4.68 | -1.42 | 1.18 | 5.18 | -1.12 | 1.88 | 1.18
C[C@H]1O[C@@H](O[C@H]2[C@@H](O)C[C@H](O[C@H]3[C@@H](O)C[C@H](O[C@H]4CC[C@@]5(C)[C@H](CC[C@@H]6[C@@H]5C[C@@H](O)[C@]5(C)[C@@H](C7=CC(=O)OC7)CC[C@]65O)C4)O[C@@H]3C)O[C@@H]2C)C[C@H](O)[C@@H]1O [Digoxin] (top concentration 1000 nM) | 8.6 | 8.9 | 6.6 | 9.8 | 8.7 | 2.4 | 9.9 | 12.3 | 12.9 | 7.8 | 11.9 | 5.6 | 2.7 | 12 | 6.3 | 8.2 | 9.1 | 8.3 | 9.2 | 6.9
CN[C@@H](C)C(=O)N[C@H](C(=O)N1CCC[C@H]1c1nc(C(=O)c2ccc(F)cc2)cs1)C1CCCCC1 [NVP-LCL161] (top concentration 25000 nM) | -4.92 | 1.18 | 1.88 | 2.38 | 12.2 | -2.72 | 7.88 | -1.82 | 0.28 | -5.42 | 3.98 | 1.58 | -5.72 | -1.62 | 2.48 | -4.32 | -1.12 | -2.42 | -3.82 | -1.92
C[C@@H](Nc1cc(F)cc(F)c1)c1cc(C(=O)N(C)C)cc2c(=O)cc(N3CCOCC3)oc12 [AZD-8186] (top concentration 1000 nM) | 3.64 | -0.26 | 1.64 | -0.26 | 5.04 | -0.26 | 8.14 | 2.14 | 3.44 | -0.26 | 4.64 | 4.34 | -0.26 | -0.26 | 2.34 | -0.26 | 7.24 | 0.44 | -0.26 | -0.26
COCC[n+]1c2c(n(Cc3cnccn3)c1C)C(=O)c1ccccc1C2=O [Sepantronium_bromide] (top concentration 10000 nM) | 22.8 | 8.44 | 14.6 | 14.2 | 15.5 | -7.46 | -12.6 | 11 | 22.8 | 22.3 | 22.8 | 19.4 | 21.2 | 12.7 | 16.2 | 4.14 | 22.8 | 7.64 | 22.3 | 20.5
NC1(c2ccc(-c3nc4ccn5c(=O)[nH]nc5c4cc3-c3ccccc3)cc2)CCC1 [MK-2206] (top concentration 1000 nM) | 3.76 | 6.36 | 3.26 | 2.86 | 5.06 | -1.64 | 6.96 | 2.26 | 3.46 | 0.06 | 9.66 | 5.76 | -1.64 | 6.16 | 6.26 | 1.66 | 6.36 | 1.96 | -0.44 | 7.36
C[C@H](Nc1ncnc2nc[nH]c12)c1cc2cccc(Cl)c2c(=O)n1-c1ccccc1 [Duvelisib] (top concentration 500 nM) | 2.16 | 4.36 | -0.44 | 2.46 | 4.96 | -0.14 | 9.76 | -0.44 | 0.16 | -0.94 | -0.94 | -0.34 | -0.94 | 1.26 | -0.94 | -0.44 | 5.76 | -0.94 | 0.06 | -0.94
C[C@@]1(C(=O)Nc2ccc(F)nc2)CCCN1c1nc(Nc2cc(C3CC3)n[nH]2)c2cccn2n1 (top concentration 10000 nM) | 11.8 | 11.8 | 12.1 | 10.5 | 12.1 | -5.02 | 2.58 | 6.18 | 4.68 | 11.4 | 11.7 | 4.58 | -4.62 | 12.5 | 8.98 | 11.3 | 11.2 | 5.58 | 8.98 | -0.12
C[C@@H]1COC(Nc2ccc3ncnc(Nc4ccc(OCc5nccs5)c(Cl)c4)c3c2)=N1 [Varlitinib] (top concentration 10000 nM) | 3.82 | -0.18 | 0.12 | 2.12 | 0.92 | -0.18 | -0.18 | -0.18 | 8.32 | 20.2 | 5.02 | 0.82 | 0.02 | -0.18 | -0.18 | 3.02 | 4.32 | 4.92 | 6.82 | 3.02
O=C(CCCCCCNC(=O)c1cnc(N(c2ccccc2)c2ccccc2)nc1)NO [Rocilinostat] (top concentration 10000 nM) | 5.84 | 4.64 | 6.54 | 3.34 | 4.84 | 3.54 | -0.56 | 10 | 13.8 | 8.24 | 11.2 | 3.74 | 1.04 | 6.94 | -0.66 | 5.34 | 5.04 | 4.64 | 5.64 | 0.04
CO[C@H]1C[C@@H]2CC[C@@H](C)[C@@](O)(O2)C(=O)C(=O)N2CCCC[C@H]2C(=O)O[C@H]([C@H](C)C[C@@H]2CC[C@@H](O)[C@H](OC)C2)CC(=O)[C@H](C)/C=C(\C)[C@@H](O)[C@@H](OC)C(=O)[C@H](C)C[C@H](C)/C=C/C=C/C=C/1C [Sirolimus] (top concentration 100 nM) | 6.34 | 3.34 | 3.14 | 3.04 | -0.66 | -0.16 | 0.44 | -0.16 | 17.9 | 1.74 | 0.84 | -0.76 | 0.44 | 5.04 | -3.66 | -2.46 | 1.34 | -1.76 | 5.04 | -3.56
CC(C)(C)c1cc(NC(=O)Nc2ccc(Oc3ccnc4[nH]c(=O)cnc34)cc2F)n(-c2ccccc2)n1 (top concentration 25000 nM) | 4.72 | -2.18 | 3.12 | 2.02 | 1.92 | -0.78 | 2.02 | -1.48 | 2.22 | -1.48 | -1.48 | 0.42 | 0.42 | -1.08 | -0.38 | -4.58 | -0.08 | -3.18 | 10.6 | 2.32
